Assay: Heat storage of granule or raw substance on a tray at 70° C., residual ratio of functional substance
Assay type: physicochemical

## O=C(O)CCCCC1CCSS1 (centres unmarked) [Comparative Example 8, Lipoic acid]
On a tray at 70° C. for 24 hours
  residual ratio of lipoic acid: 40.5%

## Vitamin E [Comparative Example 10]
On a tray at 70° C. for 72 hours
  residual ratio of vitamin E: 96.5%

Reference: patent publication US20100226994A1, “GRANULE, TABLET AND METHODS FOR PRODUCING THE SAME” (priority 2007, published 2010)
